Test results reported in article PMC5623949, “Exploiting the 2-Amino-1,3,4-thiadiazole Scaffold To Inhibit Trypanosoma brucei Pteridine Reductase in Support of Early-Stage Drug Discovery” (ACS Omega, 2017).
Where two headings read alike, the source gives them in different places.

What was measured:
[1] = in vitro; set-up: cytotoxicity, per cent cell growth of WI-38 fibroblasts; settings: human, wi-38 cells; read-out: % cell growth W1-38 at 10uM
Method: (§1) Independent of the effect of any antiparasitic potential of compounds, they were evaluated using a panel of early-toxicity assays comprising cytotoxicity (A549, human lung adenocarcinoma epithelial cell line and WI-38, human lung fibroblasts), mitochondrial toxicity (786-O, human renal carcinoma cell line), hERG inhibition,[31] cytochrome P450 inhibition (CYP1A2, CYP2C9, CYP2C19, CYP2D6, and CYP3A4),[31] and Aurora B kinase inhibition. […] For the two compounds active against TbPTR1 (4m and 4o), IC50 against hERG, cytochrome P450, and mitochondrial toxicity were determined (reported in Supporting Information). We observed that the dose of compounds 4m, 4o, 4c, and 3k was 4 μM in the potentiation assays. […] In the case of hERG, CYP2D6, CYP2A9, CYP2C19, and mitochondrial toxicity, there is a selectivity index of around 3–4 fold, thus showing an acceptable profile.  Figure 10 Summary heat map of the in vitro assays to determine possible liability issues for all synthesized compounds. Assays were performed to assess inhibition of hERG and five CYP isoforms (1A2, 2C9, 2C19, 2D6, and 3A4), growth inhibition of A549 and W1-38 cell lines, and mitochondrial toxicity at 10 μM. The hDHFR inhibition was determined at 100 μM. The data, expressed as percentage values, were organized by adopting a color code for rapid and intuitive visualization. The ideal compound should have all tiles blue, indicating a safe toxicological profile for progressing into the development pipeline. The cells are colored from blue (100% of cell growth at the tested concentration) to red (0% of cell growth at the tested concentration) for A549 and W1-38 and from blue (0% of inhibitory activity at the tested concentration) to red (100% of inhibitory activity at the tested concentration) for CYP isoforms, hERG, hDHFR, and mitochondrial toxicity.

[2] = molecular target: T1, TbPTR1 (Trypanosoma brucei brucei, UniProt O76290); assay: biochemical; settings: for inhibition at 50 µM: 50 μM compound, read-out: % Inhibition TbPTR1 at 50 μM
T1 construct: made in house
T1 sequence (O76290 1-268): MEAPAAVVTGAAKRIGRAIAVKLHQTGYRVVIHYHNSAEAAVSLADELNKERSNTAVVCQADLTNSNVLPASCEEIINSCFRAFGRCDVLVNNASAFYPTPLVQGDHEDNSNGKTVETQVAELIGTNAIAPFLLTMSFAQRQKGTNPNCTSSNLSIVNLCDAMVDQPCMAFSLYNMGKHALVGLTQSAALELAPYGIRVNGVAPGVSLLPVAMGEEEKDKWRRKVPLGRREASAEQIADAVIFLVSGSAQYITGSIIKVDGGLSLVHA

[3] = tested on: T. b. brucei Lister 427 bloodstream forms; assay: In vitro activity against T. brucei (HTS SYBR Green I growth inhibition assay); format: cell-based, Trypanosoma brucei brucei; settings: Trypanosoma brucei, 50 μM; standard deviation within ±10% of the value; read-out: % Inhibition T. brucei at 50 μM
[4] = tested on: 786-O; assay: cells; set-up: mitochondrial toxicity in 786-O renal carcinoma cells; settings: Homo sapiens, 786-0; mitochondrial toxicity
Method: as §1

[5] = molecular target: CYP2C9 (Homo sapiens, UniProt P11712); assay: in vitro; set-up: cytochrome P450 isoform inhibition liability assay
CYP2C9, sequence (P11712 whole entry, canonical isoform): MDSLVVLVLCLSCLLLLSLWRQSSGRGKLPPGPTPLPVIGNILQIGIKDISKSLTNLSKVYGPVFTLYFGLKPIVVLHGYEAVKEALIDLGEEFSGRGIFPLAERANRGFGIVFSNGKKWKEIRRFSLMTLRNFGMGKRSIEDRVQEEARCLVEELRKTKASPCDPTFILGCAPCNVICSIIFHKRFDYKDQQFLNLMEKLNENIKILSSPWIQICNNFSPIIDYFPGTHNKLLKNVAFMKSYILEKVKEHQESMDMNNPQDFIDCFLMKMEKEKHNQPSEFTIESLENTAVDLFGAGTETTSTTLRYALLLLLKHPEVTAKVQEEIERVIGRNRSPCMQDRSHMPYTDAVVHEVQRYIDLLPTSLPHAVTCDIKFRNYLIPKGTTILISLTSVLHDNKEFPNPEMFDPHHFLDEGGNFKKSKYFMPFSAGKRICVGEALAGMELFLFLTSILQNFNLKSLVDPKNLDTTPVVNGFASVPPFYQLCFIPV
Method: as §1

[6] = molecular target: CYP2D6 (Homo sapiens, UniProt P10635); assay: in vitro; set-up: cytochrome P450 isoform inhibition liability assay
CYP2D6, sequence (P10635 whole entry, canonical isoform): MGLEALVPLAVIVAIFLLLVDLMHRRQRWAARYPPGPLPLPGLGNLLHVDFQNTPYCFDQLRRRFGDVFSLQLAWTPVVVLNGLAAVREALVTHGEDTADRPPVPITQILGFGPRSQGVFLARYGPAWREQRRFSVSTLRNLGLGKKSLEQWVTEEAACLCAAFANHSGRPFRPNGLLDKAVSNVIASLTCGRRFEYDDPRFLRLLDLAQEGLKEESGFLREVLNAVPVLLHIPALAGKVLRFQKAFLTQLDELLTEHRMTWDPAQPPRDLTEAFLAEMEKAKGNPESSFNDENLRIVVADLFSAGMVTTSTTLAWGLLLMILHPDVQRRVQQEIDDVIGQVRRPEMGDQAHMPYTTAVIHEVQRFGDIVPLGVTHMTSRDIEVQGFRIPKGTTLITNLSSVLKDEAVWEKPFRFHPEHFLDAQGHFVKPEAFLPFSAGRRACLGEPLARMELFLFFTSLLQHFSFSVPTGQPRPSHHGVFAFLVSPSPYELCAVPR
Method: as §1

[7] = molecular target: CYP3A4 (Homo sapiens, UniProt P08684); assay: in vitro; set-up: cytochrome P450 isoform inhibition liability assay
CYP3A4, sequence (P08684 whole entry, canonical isoform): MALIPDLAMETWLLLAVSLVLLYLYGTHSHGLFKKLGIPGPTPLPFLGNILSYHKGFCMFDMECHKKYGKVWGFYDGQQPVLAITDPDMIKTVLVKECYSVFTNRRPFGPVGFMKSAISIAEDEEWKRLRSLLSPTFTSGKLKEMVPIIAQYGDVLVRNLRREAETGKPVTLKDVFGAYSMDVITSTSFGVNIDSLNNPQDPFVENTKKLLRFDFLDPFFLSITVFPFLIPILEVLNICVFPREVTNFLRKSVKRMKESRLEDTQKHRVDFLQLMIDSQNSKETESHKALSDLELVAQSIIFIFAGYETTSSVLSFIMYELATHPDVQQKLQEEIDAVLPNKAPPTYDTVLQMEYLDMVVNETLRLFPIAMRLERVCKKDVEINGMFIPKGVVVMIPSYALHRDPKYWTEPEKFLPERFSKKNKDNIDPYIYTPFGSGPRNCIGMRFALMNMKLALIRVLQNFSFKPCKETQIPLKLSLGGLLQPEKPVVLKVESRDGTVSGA
Method: as §1

[8] = molecular target: CYP2C19 (Homo sapiens, UniProt P33261); assay: in vitro; set-up: cytochrome P450 isoform inhibition liability assay
CYP2C19, sequence (P33261 whole entry, canonical isoform): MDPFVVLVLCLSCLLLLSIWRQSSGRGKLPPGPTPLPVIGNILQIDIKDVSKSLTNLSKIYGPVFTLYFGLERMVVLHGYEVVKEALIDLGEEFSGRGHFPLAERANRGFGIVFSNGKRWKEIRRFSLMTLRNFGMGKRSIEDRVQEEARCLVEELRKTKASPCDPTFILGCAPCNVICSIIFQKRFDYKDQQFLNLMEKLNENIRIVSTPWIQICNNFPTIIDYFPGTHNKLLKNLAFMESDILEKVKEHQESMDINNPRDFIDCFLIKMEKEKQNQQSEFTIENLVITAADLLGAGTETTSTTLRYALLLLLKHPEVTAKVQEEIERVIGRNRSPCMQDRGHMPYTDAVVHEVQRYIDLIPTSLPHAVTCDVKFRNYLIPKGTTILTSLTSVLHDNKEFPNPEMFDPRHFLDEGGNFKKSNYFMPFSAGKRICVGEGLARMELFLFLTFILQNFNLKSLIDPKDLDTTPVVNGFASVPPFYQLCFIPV
Method: as §1

[9] = molecular target: T2, CYP1A2 (Homo sapiens, UniProt P05177); assay: in vitro; set-up: cytochrome P450 isoform inhibition liability assay
T2 sequence (P05177 1-516): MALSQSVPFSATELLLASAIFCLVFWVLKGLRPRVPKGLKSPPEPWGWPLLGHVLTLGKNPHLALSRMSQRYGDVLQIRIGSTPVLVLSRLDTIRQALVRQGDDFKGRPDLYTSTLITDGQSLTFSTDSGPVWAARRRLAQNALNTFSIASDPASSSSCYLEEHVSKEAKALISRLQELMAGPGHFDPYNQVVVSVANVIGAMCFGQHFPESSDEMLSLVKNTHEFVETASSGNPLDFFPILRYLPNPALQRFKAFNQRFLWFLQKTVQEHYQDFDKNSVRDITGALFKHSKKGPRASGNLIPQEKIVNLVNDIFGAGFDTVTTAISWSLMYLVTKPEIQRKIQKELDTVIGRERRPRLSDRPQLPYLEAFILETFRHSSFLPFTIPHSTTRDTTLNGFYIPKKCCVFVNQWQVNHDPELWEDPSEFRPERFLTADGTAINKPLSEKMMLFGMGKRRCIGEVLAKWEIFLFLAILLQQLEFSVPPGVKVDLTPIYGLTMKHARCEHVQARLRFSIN
Method: as §1

[10] = molecular target: T3, hERG (Homo sapiens, UniProt Q12809); set-up: hERG inhibition liability assay
T3 construct: gene KCNH2
T3 sequence (Q12809 whole entry): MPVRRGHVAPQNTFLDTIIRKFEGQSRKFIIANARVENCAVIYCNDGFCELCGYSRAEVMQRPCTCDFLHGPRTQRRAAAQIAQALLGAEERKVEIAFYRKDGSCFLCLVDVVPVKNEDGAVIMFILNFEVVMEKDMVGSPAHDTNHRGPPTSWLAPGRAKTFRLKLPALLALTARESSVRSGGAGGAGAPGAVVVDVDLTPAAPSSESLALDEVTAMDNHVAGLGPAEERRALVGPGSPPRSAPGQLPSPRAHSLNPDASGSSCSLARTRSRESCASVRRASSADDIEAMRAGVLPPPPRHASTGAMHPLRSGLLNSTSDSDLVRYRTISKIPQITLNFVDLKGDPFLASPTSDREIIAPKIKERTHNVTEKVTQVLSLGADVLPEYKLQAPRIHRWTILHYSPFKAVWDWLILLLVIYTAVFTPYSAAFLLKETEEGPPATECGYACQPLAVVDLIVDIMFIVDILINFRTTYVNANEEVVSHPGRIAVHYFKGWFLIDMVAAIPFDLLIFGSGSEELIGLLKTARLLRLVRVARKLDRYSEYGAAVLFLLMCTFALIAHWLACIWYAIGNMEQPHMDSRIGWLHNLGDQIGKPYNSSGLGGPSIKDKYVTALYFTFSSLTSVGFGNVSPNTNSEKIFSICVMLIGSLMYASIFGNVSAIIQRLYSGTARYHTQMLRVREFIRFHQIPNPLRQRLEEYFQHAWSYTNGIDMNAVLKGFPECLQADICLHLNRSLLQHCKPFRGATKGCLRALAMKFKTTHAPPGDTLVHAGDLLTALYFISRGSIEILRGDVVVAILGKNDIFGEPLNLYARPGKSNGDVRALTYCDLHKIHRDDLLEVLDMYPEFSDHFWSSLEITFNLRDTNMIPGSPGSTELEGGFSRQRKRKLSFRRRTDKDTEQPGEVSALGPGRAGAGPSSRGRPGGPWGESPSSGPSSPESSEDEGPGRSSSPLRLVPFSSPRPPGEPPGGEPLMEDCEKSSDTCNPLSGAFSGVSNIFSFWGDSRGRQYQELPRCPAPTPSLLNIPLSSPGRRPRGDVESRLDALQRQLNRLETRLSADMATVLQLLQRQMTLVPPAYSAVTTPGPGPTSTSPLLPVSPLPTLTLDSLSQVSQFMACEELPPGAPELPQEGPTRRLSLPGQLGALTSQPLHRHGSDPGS
Method: as §1

[11] = in vitro; set-up: cytotoxicity, per cent cell growth of A549 cells; settings: human, a549 cells; read-out: % cell growth A549 at 10uM
Method: as §1

SMILES	viability at 10 µM [1]	inhibition at 50 µM [2]	inhibition at 50 µM [3]	inhibition at 10 µM [4]	inhibition at 10 µM [5]	inhibition at 10 µM [6]	inhibition at 10 µM [7]	inhibition at 10 µM [8]	inhibition at 10 µM [9]	inhibition at 10 µM [10]	viability at 10 µM [11]	IC50 ([2]; dose-response 0.001-100 μM)
Nc1nnc(NCc2ccccc2Cl)s1 [4d]	55.4 ± 2.4%	21.8 ± 2.2%	< 0%	-1.6 ± 9.3%	13.9 ± 3.5%	90.3 ± 0.9%	10.1 ± 10.7%	-13.3 ± 10.3%	28.2 ± 1.2%	15.2 ± 3.6%	115 ± 8.9%	
Nc1nnc(Cc2ccc3ccccc3c2)s1 [3e]	105 ± 38.5%	20.9 ± 0.3%	0.4%	4.3 ± 8.6%	-47.8 ± 3.9%	-31.7 ± 1.7%	-3.2 ± 3.8%	-54.9 ± 9.3%	0.4 ± 1.3%	-5.6 ± 3.5%	141 ± 5.6%	
Nc1nnc(Cc2cccs2)s1 [3d]	105 ± 20.6%	18.5 ± 0.6%	7.5%	-2.9 ± 14.3%	16 ± 2%	29.6 ± 4%	17.2 ± 4.1%	-17.4 ± 7.4%	21.7 ± 3.4%	16 ± 8.7%	112 ± 4.9%	
Nc1nnc(NCCCc2ccccc2)s1 [4q, N2G(3Gphenylpropyl)G1,3,4GthiadiazoleG2,5Gdiamine]	111 ± 43.7%	30 ± 1.9%	< 0%	5.6 ± 18%	18.6 ± 4.5%	100.2 ± 0.4%	24.2 ± 4.7%	17.3 ± 4.6%	22.1 ± 2.7%	81.1 ± 11.6%	106 ± 3.7%	57 µM
COCCCNc1nnc(N)s1 [4s, N2G(3Gmethoxypropyl)G1,3,4GthiadiazoleG2,5Gdiamine]	89.6 ± 8.9%	11.8 ± 0.3%	< 0%	-0.9 ± 11.9%	-15.5 ± 7.2%	-13.5 ± 10.7%	-37.5 ± 15.3%	-20 ± 13.9%	-14.8 ± 3.7%	3.9 ± 5.4%	101 ± 11.2%	
COc1ccc(CNc2nnc(N)s2)cc1OC [4j]	129 ± 57.4%	8.4 ± 1.2%	45.1%	-8.3 ± 4.5%	26.2 ± 1.3%	36.5 ± 4.4%	18.6 ± 4.2%	5.7 ± 7.4%	23.9 ± 4.8%	35.7 ± 7.1%	118 ± 3.9%	
Nc1nnc(CCC(=O)c2ccccc2)s1 [3j]	113 ± 8%	12.9 ± 0.7%	1.2%		-30.6 ± 6.8%	-30.6 ± 5.9%	-22.9 ± 7.1%	-35.4 ± 6.6%	-13.4 ± 12.3%	-2.3 ± 10.2%	138 ± 8.8%	
Nc1nnc(CCc2ccccc2)s1 [3g]	101 ± 17.5%	7.6 ± 0.3%	< 0%	4 ± 16.1%	-10.5 ± 3.7%	-43.9 ± 4.1%	-25.6 ± 10.5%	-36.5 ± 6.1%	-14.9 ± 5.7%	-1.9 ± 1.3%	109 ± 13.4%	
Cc1nnc(N)s1 [3a]	130 ± 5.8%	5.4 ± 0.7%	< 0%	-4.4 ± 14.3%	-10.9 ± 5%	-46 ± 4.5%	-22.3 ± 9%	-35.5 ± 2.4%	-6.6 ± 2.1%	8.2 ± 6.6%	130 ± 19.1%	
Nc1nnc(NCc2ccc(F)cc2)s1 [4g]	97.1 ± 30.2%	14.7 ± 1.7%	33%	-8.3 ± 12.6%	22.9 ± 1.3%	103.1 ± 0.6%	11.2 ± 3.1%	-13.9 ± 11.1%	24.9 ± 2.6%	96.9 ± 6.1%	110 ± 8%	
Nc1nnc(-c2ccccc2)s1 [1a]	101 ± 10.3%	25.3 ± 1.2%	21%	0.9 ± 10.6%	3.9 ± 2.9%	-8.5 ± 2.2%	82.6 ± 1.6%	76.9 ± 3.2%	24.8 ± 1.8%	-3.3 ± 1.9%	119 ± 12.5%	
Nc1nnc(NCc2ccccc2)s1 [4b]	124 ± 19%	39.5 ± 0.9%	< 0%	9 ± 14.8%	-14.7 ± 3.3%	-32.7 ± 6.7%	-9.5 ± 6.2%	-32.1 ± 5.7%	-17.2 ± 3.6%	1.8 ± 1.3%	104 ± 9.3%	
CN(C)C(=O)NCc1ccc(-c2nnc(N)s2)cc1 [1p]	118 ± 24.8%	5.3 ± 0.9%	< 0%	11.6 ± 10.1%	36.6 ± 0.6%	18.5 ± 2.7%	15.1 ± 9.9%	9.4 ± 6.5%	20.9 ± 3.3%	6.4 ± 1.9%	108.7 ± 0.45%	
Cc1ccc(CNc2nnc(N)s2)cc1 [4l]	106 ± 13.2%	18.6 ± 0.8%	10.8%	-5.3 ± 14.7%	14.2 ± 3.9%	98.7 ± 1%	26.9 ± 4.7%	-6.7 ± 11.4%	17.3 ± 3.2%	77.4 ± 1.5%	104.6 ± 0.5%	
COc1cc(-c2nnc(N)s2)cc(OC)c1OC [1e]	105 ± 22.3%	13.5 ± 0.4%	1.4%		-12.4 ± 3.9%	-37.2 ± 7.9%	-11.2 ± 10.3%	-18.5 ± 3.7%	2.55 ± 3.9%	1 ± 1.9%	114 ± 6.2%	
Nc1nnc(-c2ccc(-c3ccccc3)cc2)s1 [2a]	90.7 ± 4.9%	10.8 ± 0.4%	43.1%	11.1 ± 4.1%	76.7 ± 0.5%	45.4 ± 3.1%	50.6 ± 3.7%	95.8 ± 0.7%	98.9 ± 0.4%		142 ± 7.3%	
CN(C)C(=O)NCc1cccc(-c2nnc(N)s2)c1 [1q]		2.5 ± 0.2%	1.2%		19.7 ± 3.6%	20.4 ± 3.5%	4.5 ± 11.4%	19.6 ± 8.2%	7 ± 1.9%			
